The source made the active and inactive calls. The calls are words filed in the database; no cut-off is given here.

Data set [1] can be described thus: Stability in human liver microsomes assessed as metabolic turnover at 2.5 mM preincubated for 5 mins followed by phase 1 cofactor NADPH addition measured for 60 mins by HPLC analysis. Type of data set: ADME, Microsome. The conditions noted are these: read-out: Drug metabolism.
The nature of data set [2]: Stability in human liver microsomes at 2.5 mM measured up to 60 mins in absence of phase 2 cofactor UDP-GlcUA/NADPH by HPLC analysis. Type of data set: ADME, Microsome. To be noted: 1 h, 2500 µM. (In general: Liver microsomes are vesicles of endoplasmic reticulum, rich in cytochrome P450 enzymes.)
Data set [3] in a line: Stability in human liver microsomes at 2.5 mM measured up to 60 mins in absence of phase 1 cofactor NADPH by HPLC analysis. The conditions noted are these: 1 h, 2500 µM. In kind it is ADME, Microsome.
In data set [4] the test system is Rattus norvegicus. Description: Inhibition of icilin-induced wet-dog shake in Wistar rat model at 10 mg/kg, ip treated 2 hrs prior to icilin challenge measured for 30 mins. In kind it is functional, organism-based.
Data set [5] has as its system Rattus norvegicus. Description: Inhibition of icilin-induced wet-dog shake in Wistar rat model at 10 mg/kg, ip treated 30 mins prior to icilin challenge measured for 30 mins. In kind it is functional, organism-based.

For `COC(=O)[C@@H]1Cc2c([nH]c3ccccc23)[C@@H](c2ccccc2)N1Cc1ccccc1`, the metabolised at 1 h in data set [1] fell in the range of 1.1 to 72%. In addition, the Stability result in data set [2] and in data set [3] was “Stable” each time.

Consider `O=C1N[C@H](Cc2ccccc2)C(=O)N2Cc3[nH]c4ccccc4c3C[C@@H]12`, for which, in data set [1], the metabolised at 1 h was 1.1 to 72%. Further, the Stability entry in data set [2] and in data set [3] was “Stable” throughout.

As for `O=C1[C@@H]2Cc3c([nH]c4ccccc34)[C@@H](c3ccc(Cl)cc3)N2C(=O)N1Cc1ccc(F)cc1`, the metabolised at 1 h in data set [1] was 26.5%. The Stability entry in data set [2] and in data set [3] was “Stable” throughout.

`COC(=O)CC[C@H]1N[C@H](C(=O)NCc2ccc(F)cc2)Cc2c1[nH]c1ccccc21`: the metabolised at 1 h in data set [1] was 1.1 to 72%.

Regarding `COC(=O)C(Cc1c[nH]c2ccccc12)N(Cc1ccccc1)Cc1ccccc1` (centres undefined), in data set [4], the inhibition result was “inactive”. The inhibition result in data set [5] was “Active”. For the same compound, the Stability entry in data set [2] and in data set [3] was “Stable” in each case.

(Values after ChEMBL document CHEMBL4622981, “Exploration of TRPM8 Binding Sites by β-Carboline-Based Antagonists and Their In Vitro Characterization and In Vivo Analgesic Activities” (J Med Chem, 2020).)
